Source: the supplement of paper PMC11061612

Columns and labels:
Gemcitabine = compound: Nc1ccn([C@@H]2O[C@H](CO)[C@@H](O)C2(F)F)c(=O)n1 [Gemcitabine]; conditions: max 0.3 µM
In short: (§1)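 Following 24 hours at 37°C and 5% CO2, cancer cell lines in 1536-well plates with 7.5 μl DMEM/F12 or RPMI and 10% FBS were dosed for 72 hours, final DMSO typically being 0.2%. CellTiter-Glo 2.0 luminescence, scaled between blank-well and DMSO-well means, gave the viability readout. Dose responses were fitted to a two-parameter logistic curve with a non-linear mixed effects model, and the single-agent IC50 was derived from this fit.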

Paclitaxel = compound: CC(=O)O[C@H]1C(=O)[C@@]2(C)[C@H]([C@H](OC(=O)c3ccccc3)[C@]3(O)C[C@H](OC(=O)[C@H](O)[C@@H](NC(=O)c4ccccc4)c4ccccc4)C(C)=C1C3(C)C)[C@]1(OC(C)=O)CO[C@@H]1C[C@@H]2O [Paclitaxel]; conditions: max 3 µM
In short: as §1

Taselisib = compound: Cc1nc(-c2cn3c(n2)-c2ccc(-c4cnn(C(C)(C)C(N)=O)c4)cc2OCC3)n(C(C)C)n1 [Taselisib]; conditions: max 10 µM
In short: as §1

AZD5991 = compound: Cc1c2c(nn1C)CSCc1cc(n(C)n1)CSc1cc(c3ccccc3c1)OCCCc1c(C(=O)O)n(C)c3c-2c(Cl)ccc13 [AZD5991]; conditions: max 1 µM
In short: as §1

Gefitinib = compound: COc1cc2ncnc(Nc3ccc(F)c(Cl)c3)c2cc1OCCCN1CCOCC1 [Gefitinib]; conditions: max 10 µM
In short: as §1

AZD1775 = compound: C=CCn1c(=O)c2cnc(Nc3ccc(N4CCN(C)CC4)cc3)nc2n1-c1cccc(C(C)(C)O)n1 [AZD1775]; conditions: max 3 µM
In short: as §1

AZD2811 = compound: CCN(CCO)CCCOc1ccc2c(Nc3cc(CC(=O)Nc4cccc(F)c4)[nH]n3)ncnc2c1 [AZD2811]; conditions: max 1 µM
In short: as §1

Selumetinib = compound: Cn1cnc2c(F)c(Nc3ccc(Br)cc3Cl)c(C(=O)NOCCO)cc21 [Selumetinib]; conditions: max 10 µM
In short: as §1

SG3199 = compound: CC1=CN2[C@@H](C1)C=NC3=CC(=C(C=C3C2=O)OC)OCCCCCOC4=C(C=C5C(=C4)N=C[C@@H]6CC(=CN6C5=O)C)OC [SG3199]; conditions: max 0.001 µM
In short: as §1

Etoposide = compound: COc1cc([C@@H]2c3cc4c(cc3[C@@H](O[C@@H]3O[C@@H]5CO[C@@H](C)O[C@H]5[C@H](O)[C@H]3O)[C@H]3COC(=O)[C@H]23)OCO4)cc(OC)c1O [Etoposide]; conditions: max 10 µM
In short: as §1

AZD5363 = compound: C1CN(CCC1(C(=O)N[C@@H](CCO)C2=CC=C(C=C2)Cl)N)C3=NC=NC4=C3C=CN4 [AZD5363]; conditions: max 10 µM
In short: as §1

SN-38 = compound: CCc1c2c(nc3ccc(O)cc13)-c1cc3c(c(=O)n1C2)COC(=O)[C@]3(O)CC [SN-38]; conditions: max 0.3 µM
In short: as §1

Palbociclib = compound: CC(=O)c1c(C)c2cnc(Nc3ccc(N4CCNCC4)cn3)nc2n(C2CCCC2)c1=O [Palbociclib]; conditions: max 10 µM
In short: as §1

Dasatinib = compound: CC1=C(C(=CC=C1)Cl)NC(=O)C2=CN=C(S2)NC3=CC(=NC(=N3)C)N4CCN(CC4)CCO [Dasatinib]; conditions: max 2 µM
In short: as §1

Prexasertib = compound: COc1cccc(OCCCN)c1-c1cc(Nc2cnc(C#N)cn2)n[nH]1 [Prexasertib]; conditions: max 1 µM
In short: as §1

SRA737 = compound: N#Cc1cnc(Nc2cc(NC[C@H]3CNCCO3)c(C(F)(F)F)cn2)cn1 [SRA737]; conditions: max 10 µM
In short: as §1

Venetoclax = compound: CC1(C)CCC(CN2CCN(c3ccc(C(=O)NS(=O)(=O)c4ccc(NCC5CCOCC5)c([N+](=O)[O-])c4)c(Oc4cnc5[nH]ccc5c4)c3)CC2)=C(c2ccc(Cl)cc2)C1 [Venetoclax]; conditions: max 1 µM
In short: as §1

AZD5153 = compound: COc1nnc2ccc(N3CCC(c4ccc(OCCN5CCN(C)C(=O)[C@H]5C)cc4)CC3)nn12 [AZD5153]; conditions: max 1 µM
In short: as §1

Olaparib = compound: O=C(c1cc(Cc2n[nH]c(=O)c3ccccc23)ccc1F)N1CCN(C(=O)C2CC2)CC1 [Olaparib]; conditions: max 10 µM
In short: as §1

AZD4320 = compound: CN(CC[C@H](CSC1=CC=CC=C1)NC2=C(C=C(C=C2)S(=O)(=O)NC(=O)C3=CC=C(C=C3)N4CCC(CC4)[C@H](C5=CC=CC=C5C6=CC=C(C=C6)Cl)O)S(=O)(=O)C(F)(F)F)CCO [AZD4320]; conditions: max 1 µM
In short: as §1

Savolitinib = compound: C[C@@H](c1ccc2nccn2c1)n1nnc2ncc(-c3cnn(C)c3)nc21 [Savolitinib]; conditions: max 1 µM
In short: as §1

AZD1390 = compound: CC(C)n1c(=O)n(C)c2cnc3cc(F)c(-c4ccc(OCCCN5CCCCC5)nc4)cc3c21 [AZD1390]; conditions: max 0.3 µM
In short: as §1

5-Fluorouracil = compound: O=c1[nH]cc(F)c(=O)[nH]1 [5-Fluorouracil]; conditions: max 20 µM
In short: as §1

Carboplatin = compound: C1CC(C1)(C(=O)[O-])C(=O)[O-].N.N.[Pt+2] [Carboplatin]; conditions: max 10 µM
In short: as §1

AZD6738 = compound: C[C@@H]1COCCN1C2=NC(=NC(=C2)C3(CC3)[S@](=N)(=O)C)C4=C5C=CNC5=NC=C4 [AZD6738]; conditions: max 10 µM
In short: as §1

Doxorubicin = compound: COc1cccc2c1C(=O)c1c(O)c3c(c(O)c1C2=O)C[C@@](O)(C(=O)CO)C[C@@H]3O[C@H]1C[C@H](N)[C@H](O)[C@H](C)O1 [Doxorubicin]; conditions: max 1 µM
In short: as §1

AZD0156 = compound: CN(C)CCCOc1ccc(-c2ccc3ncc4c(c3c2)n(C2CCOCC2)c(=O)n4C)cn1 [AZD0156]; conditions: max 3 µM
In short: as §1

MK-2206 = compound: NC1(c2ccc(-c3nc4ccn5c(=O)[nH]nc5c4cc3-c3ccccc3)cc2)CCC1 [MK-2206]; conditions: max 10 µM
In short: as §1

Trametinib = compound: CC(=O)Nc1cccc(-n2c(=O)n(C3CC3)c(=O)c3c(Nc4ccc(I)cc4F)n(C)c(=O)c(C)c32)c1 [Trametinib]; conditions: max 1 µM
In short: as §1

[1] = compound: O=C(Nc1ccc2[nH]nc(-c3ccncc3)c2c1)[C@@H]1CCN(CC(=O)N2CCN(c3ccc(-c4ncccn4)cc3)CC2)C1; conditions: max 5 µM
In short: as §1

Alisertib = compound: COc1cc(Nc2ncc3c(n2)-c2ccc(Cl)cc2C(c2c(F)cccc2OC)=NC3)ccc1C(=O)O [Alisertib]; conditions: max 10 µM
In short: as §1

AZD7648 = compound: Cc1cc2ncnn2cc1Nc1ncc2c(n1)n(C1CCOCC1)c(=O)n2C [AZD7648]; conditions: max 10 µM
In short: as §1

AZD8186 = compound: C[C@@H](Nc1cc(F)cc(F)c1)c1cc(C(=O)N(C)C)cc2c(=O)cc(N3CCOCC3)oc12 [AZD8186]; conditions: max 10 µM
In short: as §1

Crizotinib = compound: C[C@@H](Oc1cc(-c2cnn(C3CCNCC3)c2)cnc1N)c1c(Cl)ccc(F)c1Cl [Crizotinib]; conditions: max 10 µM
In short: as §1

Lapatinib = compound: CS(=O)(=O)CCNCc1ccc(-c2ccc3ncnc(Nc4ccc(OCc5cccc(F)c5)c(Cl)c4)c3c2)o1 [Lapatinib]; conditions: max 10 µM
In short: as §1

| Cell Line | IC50, cell viability 72 h (Gemcitabine) [nM] | IC50, cell viability 72 h (Paclitaxel) [nM] | IC50, cell viability 72 h (Taselisib) [nM] | IC50, cell viability 72 h (AZD5991) [nM] | IC50, cell viability 72 h (Gefitinib) [nM] | IC50, cell viability 72 h (AZD1775) [nM] | IC50, cell viability 72 h (AZD2811) [nM] | IC50, cell viability 72 h (Selumetinib) [nM] | IC50, cell viability 72 h (SG3199) [nM] | IC50, cell viability 72 h (Etoposide) [nM] | IC50, cell viability 72 h (AZD5363) [nM] | IC50, cell viability 72 h (SN-38) [nM] | IC50, cell viability 72 h (Palbociclib) [nM] | IC50, cell viability 72 h (Dasatinib) [nM] | IC50, cell viability 72 h (Prexasertib) [nM] | IC50, cell viability 72 h (SRA737) [nM] | IC50, cell viability 72 h (Venetoclax) [nM] | IC50, cell viability 72 h (AZD5153) [nM] | IC50, cell viability 72 h (Olaparib) [nM] | IC50, cell viability 72 h (AZD4320) [nM] | IC50, cell viability 72 h (Savolitinib) [nM] | IC50, cell viability 72 h (AZD1390) [nM] | IC50, cell viability 72 h (5-Fluorouracil) [nM] | IC50, cell viability 72 h (Carboplatin) [nM] | IC50, cell viability 72 h (AZD6738) [nM] | IC50, cell viability 72 h (Doxorubicin) [nM] | IC50, cell viability 72 h (AZD0156) [nM] | IC50, cell viability 72 h (MK-2206) [nM] | IC50, cell viability 72 h (Trametinib) [nM] | IC50, cell viability 72 h [1] [nM] | IC50, cell viability 72 h (Alisertib) [nM] | IC50, cell viability 72 h (AZD7648) [nM] | IC50, cell viability 72 h (AZD8186) [nM] | IC50, cell viability 72 h (Crizotinib) [nM] | IC50, cell viability 72 h (Lapatinib) [nM] |
| --- | --- | --- | --- | --- | --- | --- | --- | --- | --- | --- | --- | --- | --- | --- | --- | --- | --- | --- | --- | --- | --- | --- | --- | --- | --- | --- | --- | --- | --- | --- | --- | --- | --- | --- | --- |
| OVKATE (Ovarian Carcinoma) | > 300 | > 3000 | > 10000 | > 1000 | > 10000 | > 3000 | > 1000 | > 10000 | > 1 | > 10000 | > 10000 | > 300 | > 10000 | > 2000 | > 1000 | > 10000 | > 1000 | > 1000 | > 10000 | > 1000 | > 1000 | > 300 | > 20000 | > 10000 | > 10000 | > 1000 | > 3000 | > 10000 | > 1000 | > 5000 | > 10000 | > 10000 | > 10000 | > 10000 | > 10000 |
| SK-MEL-24 (Melanoma) | 193 | 738 | 5000 | > 1000 | > 10000 | > 3000 | > 1000 | 2770 | > 1 | > 10000 | > 10000 | 23.9 | > 10000 | > 2000 | 575 | > 10000 | > 1000 | > 1000 | > 10000 | > 1000 | > 1000 | > 300 | > 20000 | > 10000 | > 10000 | 701 | > 3000 | > 10000 | 46.3 | 3270 | > 10000 | > 10000 | > 10000 | > 10000 | > 10000 |
| SBC-3 (Small Cell Lung Carcinoma) | 14.7 | 3.8 | 2580 | > 1000 | > 10000 | 822 | 636 | > 10000 | > 1 | 313 | > 10000 | 2.25 | 4820 | > 2000 | 136 | > 10000 | > 1000 | 64.6 | > 10000 | > 1000 | > 1000 | > 300 | 4540 | > 10000 | 5850 | 71.7 | > 3000 | > 10000 | > 1000 | > 5000 | 421 | > 10000 | > 10000 | 3450 | > 10000 |
| NCI-H2023 (Non-Small Cell Lung Carcinoma) | 134 | 531 | 3870 | > 1000 | > 10000 | 2020 | > 1000 | > 10000 | > 1 | > 10000 | > 10000 | 110 | > 10000 | > 2000 | 30.6 | > 10000 | > 1000 | > 1000 | > 10000 | > 1000 | > 1000 | > 300 | 11900 | > 10000 | 3500 | 225 | > 3000 | > 10000 | > 1000 | > 5000 | > 10000 | > 10000 | > 10000 | > 10000 | > 10000 |
| NCI-H1648 (Lung Adenocarcinoma) | > 300 | 12.4 | 146 | > 1000 | 2340 | 1310 | > 1000 | > 10000 | > 1 | > 10000 | 9590 | 59.6 | > 10000 | 373 | 156 | > 10000 | > 1000 | 203 | > 10000 | > 1000 | > 1000 | > 300 | > 20000 | > 10000 | 4850 | > 1000 | > 3000 | 9830 | 28.9 | > 5000 | 7890 | > 10000 | > 10000 | 8990 | 1990 |
